Literature values in US20250134883A1, “NOVEL COMPOSITIONS” (TULEX PHARMACEUTICALS INC., priority 2022, published 2025).

Conditions: high dose naltrexone (0.5, 1.0 and 2.0 mg/kg)

O=C1CC[C@@]2(O)[C@H]3Cc4ccc(O)c5c4[C@@]2(CCN3CC2CC2)[C@H]1O5 [naltrexone, Naltrexone]
effect on autistic behavior and gaze aversion: reverse autistic behavior and gaze aversion
